Read-outs that look alike come from different tables or passages of the source.
Tests used:
[1] = test system: C. acetobutylicum Rpe (ribulose-3-phosphate epimerase); details: measured experimentally or estimated from literature, cited from earlier work
[2] = test system: C. acetobutylicum Rpi (ribose-5-phosphate isomerase); details: measured experimentally or estimated from literature, cited from earlier work
[3] = test system: C. acetobutylicum Tkt′ (transketolase, second reaction); details: measured experimentally or estimated from literature, cited from earlier work
[4] = test system: C. acetobutylicum Tal (transaldolase); details: measured experimentally or estimated from literature, cited from earlier work
[5] = test system: C. acetobutylicum Tkt (transketolase); details: measured experimentally or estimated from literature, cited from earlier work
[6] = target: C. acetobutylicum Fba (fructose-1,6-bisphosphate aldolase); details: measured experimentally or estimated from literature, cited from earlier work
[7] = test system: C. acetobutylicum Tpi (triose phosphate isomerase); details: measured experimentally or estimated from literature, cited from earlier work
[8] = test system: C. acetobutylicum Fbp (fructose-1,6-biphosphatase); assay: Kinetic parameters of C. acetobutylicum NOG enzymes (Fbp); assay type: biochemical; details: measured experimentally or estimated from literature
Protocol: (§1) The kinetic parameters of C. acetobutylicum enzymes involved in the NOG pathway were measured experimentally or estimated from literature (Table 1) and compiled in a COPASI toolbox for kinetic simulations.

[9] = test system: C. acetobutylicum Fba (fructose-1,6-bisphosphate aldolase); assay: Kinetic parameters of C. acetobutylicum NOG enzymes (Fba); assay type: biochemical; details: measured experimentally or estimated from literature; read-out: Kms
Protocol: as §1

[10] = target: T1, C. acetobutylicum Xpk (xylulose-5-phosphate phosphoketolase) (Clostridium acetobutylicum, UniProt Q97JE3); assay: Kinetic parameters of C. acetobutylicum NOG enzymes (Xpk); assay type: biochemical; details: measured experimentally or estimated from literature
T1 sequence (Q97JE3 1-796): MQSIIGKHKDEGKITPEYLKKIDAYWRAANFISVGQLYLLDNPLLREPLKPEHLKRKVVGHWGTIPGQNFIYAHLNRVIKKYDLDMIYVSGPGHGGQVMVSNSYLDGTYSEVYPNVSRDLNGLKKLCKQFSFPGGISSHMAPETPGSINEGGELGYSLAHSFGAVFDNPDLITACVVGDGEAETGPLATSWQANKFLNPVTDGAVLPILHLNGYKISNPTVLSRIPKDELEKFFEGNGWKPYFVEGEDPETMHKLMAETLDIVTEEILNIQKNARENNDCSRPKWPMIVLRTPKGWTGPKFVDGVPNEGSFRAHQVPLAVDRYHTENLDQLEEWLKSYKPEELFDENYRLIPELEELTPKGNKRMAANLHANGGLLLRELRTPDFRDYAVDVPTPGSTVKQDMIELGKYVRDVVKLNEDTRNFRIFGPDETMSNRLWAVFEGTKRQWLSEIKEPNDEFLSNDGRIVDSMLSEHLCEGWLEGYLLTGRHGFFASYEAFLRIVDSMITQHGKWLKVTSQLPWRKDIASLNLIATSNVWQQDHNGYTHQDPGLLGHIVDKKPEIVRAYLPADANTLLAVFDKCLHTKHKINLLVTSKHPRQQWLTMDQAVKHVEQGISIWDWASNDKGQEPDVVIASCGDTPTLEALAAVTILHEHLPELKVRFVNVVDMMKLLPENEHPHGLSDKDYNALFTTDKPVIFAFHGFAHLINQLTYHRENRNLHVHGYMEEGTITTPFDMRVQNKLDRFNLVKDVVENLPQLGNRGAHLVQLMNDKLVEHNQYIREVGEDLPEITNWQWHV
Protocol: as §1

## O=C(CO)[C@H](O)[C@H](O)COP(=O)(O)O [ribulose-5-phosphate]
[1]; read-out: Kms
  Km: 5970 µM
[2]; read-out: Kms
  Km: 2470 µM

## O=C[C@H](O)[C@H](O)COP(=O)(O)O [erythrose-4-phosphate]
[3]; read-out: Kma
  Km: 946 µM
[4]; read-out: Kmq
  Km: 362 µM

## O=C(CO)[C@@H](O)[C@H](O)[C@H](O)[C@H](O)COP(=O)(O)O [sedoheptulose-7-phosphate]
[5]; read-out: Kmq
  Km: 150 µM
[4]; read-out: Kmb
  Km: 786 µM

## O=C[C@H](O)COP(=O)(O)O [glyceraldehyde-3-phosphate]
[6]; read-out: Kip
  Ki: 10 mM
[6]; read-out: Kmq
  Km: 2400 µM
[3]; read-out: Kmq
  Km: 100 µM
[7]; read-out: Kmp
  Km: 5250 µM
[4]; read-out: Kma
  Km: 272 µM

## O=P(O)(O)OC[C@H]1OC(O)[C@H](O)[C@@H]1O (stereo partly shown) [ribose-5-phosphate]
[5]; read-out: Kmb
  Km: 235 µM
[2]; read-out: Kmp
  Km: 5700 µM

## O=C(CO)COP(=O)(O)O [dihydroxyacetone phosphate]
[6]; read-out: Kmp
  Km: 2000 µM
[7]; read-out: Kms
  Km: 6450 µM

## O=P(O)(O)OC[C@H]1OC(O)(COP(=O)(O)O)[C@@H](O)[C@@H]1O (stereo partly shown) [fructose-1,6-bisphosphate]
[8]
  Km: 63 µM
[9]
  Km: 1140 µM

## O=P(O)(O)OC[C@H]1OC(O)(CO)[C@@H](O)[C@@H]1O (stereo partly shown) [fructose-6-phosphate]
[3]; read-out: Kmp
  Km: 1100 µM
[4]; read-out: Kmp
  Km: 1440 µM

## O=C(CO)[C@@H](O)[C@H](O)COP(=O)(O)O [xylulose-5-phosphate]
[1]; read-out: Kmp
  Km: 7700 µM
[3]; read-out: Kmb
  Km: 670 µM
[10]
  Km: 6400 µM

From patent US11634701B2, “Metabolic pathways with increased carbon yield” (TOTAL RAFFINAGE CHIMIE, priority 2018, dated 2023)
